Reference: patent USRE49556E1, “Compounds and compositions as protein kinase inhibitors” (Array BioPharma Inc., priority 2009, dated 2023)

What was measured:
SW620 cells = assay: SW620 cell viability assay (Cell Titer Glo); assay type: cell-based; details: 9 serial dilutions between 10 and 0.002 μM, without MEK inhibitor
Experimental: The present invention also includes combinations of the BRaf inhibitors disclosed in this invention with other agents. In particular, the present invention provides for combinations with MEK1/2 inhibitors. FIG. 1 illustrates that the addition of a MEK small molecule inhibitor can reverse the induced ERK signaling, cell growth and transformation caused by a Raf small molecule inhibitor.
SW620 cells were seeded in 1640 RPMI+10% FBS at a density of 1500 cells per 96-well in black walled, clear bottom tissue culture treated plates. Test compounds were serially diluted in DMSO then added to the cells (final DMSO concentration of 0.1%) and incubated at 37° C. and 5% CO2 for 4 days. To measure cell viability, cell plates were brought to room temperature, culture media was removed, and 200 µl of Cell Titer-Glo reagent (Promega, kit components mixed as per the manufacturer's protocol then diluted 1:2 with growth media) was added to each well. Plates were shaken for 5 minutes, then incubated at room temperature for 5 minutes, and the luminescence was measured (Trilux, Perkin Elmer).

A375 cells = assay: A375 Cellular Proliferation Assay (A375 CP); assay type: cell-based; details: A375-luc cells, 2 days
Experimental: A375-luc cells engineered to express luciferase are plated to 384-well white clear bottom plates as 1,500 cells/50 μl/well in DMEM containing 10% FBS. Compounds of the invention dissolved in 100% DMSO at appropriate concentrations are transferred to the cells by a robotic Pin Tool (100 nl). The cells are incubated for 2 days at […], then 25 μl of BrightGlo™ is added to each well and the plates are read by luminescence. The concentration of each compound for 50% inhibition (IC50) was calculated by non-linear regression using XL Fit data analysis software.

[1] = Liver microsomal clearance assay, human; assay type: in vitro ADME; details: extraction ratio, human liver microsomes, 1 μM compound
Experimental: (§1) Liver Microsomal Clearance Assay
(§2) The in vitro microsomal clearance assay is designed to assess potential risks associated with hepatic metabolic stability of compounds. The test compound (1 μM) was incubated with liver microsomes (0.5 mg/mL) from different species (mouse, rat, monkey, dog and human) and NADPH (1 mM) in 100 mM potassium phosphate buffer at 37° C. At specific reaction time points (0, 5, 10 and 30 minutes), reaction aliquots were removed and reactions were terminated by addition of ice cold acetonitrile containing mass spectrometry internal standard. The samples were centrifuged and the supernatants were analyzed by LC-MS/MS. In vitro metabolic half-life (t1/2, min) and intrinsic clearance (CLint, μL/min/mg) are based on the rate and extent of metabolism of the test compound as determined by the disappearance of the parent compound from the reaction mixture. These values may be scaled to predict hepatic metabolic clearance rate (CLh, mL/min/kg) and extraction ratio (ER, expressed as a ratio of the predicted hepatic metabolic clearance to hepatic blood flow in that species). In general, compounds with high predictedCLint or ER in vitro are considered to be at high risk for exposure-limiting metabolism in vivo.

[2] = Liver microsomal clearance assay, mouse; assay type: in vitro ADME; details: extraction ratio, mouse liver microsomes, 1 μM compound
Experimental: as §1, §2

[3] = In vivo pharmacokinetics assay in mouse
Experimental: (§3) Full pharmacokinetics study: Male Balb/c mice (n=3, body weights 22-25 g) or male Wistar rats (n=3, body weights 250-300 g) were administered the test compound intravenously via the lateral tail vein or orally via gavage. […] Six blood samples of 50 μL each were collected serially for 24 h after dosing. The blood samples were centrifuged to separate the plasma. Plasma samples were analyzed and quantified by LC-MS/MS.
as §3, with “Rapid” for “Full”, “intravenously (IV)” for “intravenously”, “orally (PO)” for “orally”, “Blood” for “The blood”, “and plasma separated and pooled across” for “to separate”, “three animals at each time point per dose route.” for “plasma.”
For both full and rapid pharmacokinetics studies, the following parameters were calculated by non-compartmental regression analysis using Winnonlin 5.0 software (Pharsight, Mountain View, Calif., USA): plasma clearance (Cl), plasma maximum concentration (Cmax), plasma area-under-the-concentration-time-curve (AUC0-inf) and percent oral bioavailability (F %).

COC(=O)N[C@@H](C)CNc1nccc(-c2cn(C(C)C)nc2-c2cc(Cl)cc(NS(C)(=O)=O)c2F)n1 [Compound 9, Methyl N-[(2S)-1-({4-[3-(5-chloro-2-fluoro-3-methanesulfonamidophenyl)-1-(propan-2-yl)-1H-pyrazol-4-yl]pyrimidin-2-yl}amino)propan-2-yl]carbamate]
cellular proliferation (Cell Titer Glo, FIG. 1) (SW620 cells): induction in cellular proliferation

methyl N-[(2S)-1-[(4-{3-[2-fluoro-3-(propane-1-sulfonamido)phenyl]-1-(propan-2-yl)-1H-pyrazol-4-yl}pyrimidin-2-yl)amino]propan-2-yl]carbamate [Compound 3]
IC50 (A375 cells): 2 nM
ER Human [1]: 0.69
ER Mouse [2]: 0.85
Cmax ([3]; PO 5 mg/kg, n = 1): 70 nM
PO AUC ([3]; PO 5 mg/kg, n = 1): 0.20 (n = 1) hrs*μM
F ([3]; PO/IV 5/2 mg/kg, n = 1): 6 (n = 1) %
Cl ([3]; plasma clearance, IV 2 mg/kg): 51 (n = 1) mL/min/kg
